Test results from US9555039B2, “Piperidine derivatives and compositions for the inhibition of nicotinamide phosphoribosyltransferase (NAMPT)” (Forma TM, LLC., priority 2011, dated 2017).
Like-named read-outs stand apart in the source and are kept apart here.

Experiments:
A2780 cells = test: In-vitro cell proliferation assay (SRB, 72 hours); assay type: cell-based; settings: sulforhodamine B (SRB) assay
Method: In-Vitro Cell Proliferation Assay
After overnight incubation at 37° C. and 5% CO2, the compound titrations were performed in a separate dilution plate by serially diluting the compounds in DMSO to make a 1000× stock. The compounds were then further diluted to 10× final concentration in culture media, whereupon 20 μL of each dilution was added to the plated cells with controls (e.g. DMSO and blank) to make a final volume of 200 μL. The final DMSO concentration in each well was 0.1%. The plates were then incubated for 72 hours at 37° C. in a 5% CO2 incubator. The number of viable cells was then assessed using sulforhodamine B (SRB) assay. Cells were fixed at 4° C. for 1 hour with the addition of 50 μL 30% trichloroacetic acid (TCA) to make a final concentration of 6% TCA. The plates were washed four times with H2O and allowed to dry for at least 1 hour, whereupon 100 μL of a 4% SRB in 1% acetic acid solution was added to each well and incubated at room temperature for at least 30 minutes. The plates were then washed three times with 1% acetic acid, dried, and treated with 100 μL of 10 mM Tris-Base solution. The plates were then read in a microplate reader at an absorbance of 570 nm. Background was generated on a separate plate with media only.
Method for Determining % Inhibition
First, the signals from the background plate are averaged, then the background was subtracted from the test plates.
wherein x denotes the average signal of the compound-treated cells and y denotes the average signal of the DMSO-treated cells.
wherein X denotes the compound concentration 1, Y denotes the compound concentration 2, XX denotes the % inhibition at compound concentration 1 (X), and YY denotes the % inhibition at compound concentration 2 (Y).

[1] = target: T1, Recombinant His-tagged NAMPT (Homo sapiens, UniProt P43490); test: Biochemical inhibition assay: NAMPT enzymatic reaction, NMN quantified by mass spectrometry; settings: 33 nM NAMPT, 1 μM NAM, 100 μM PRPP, 30 minutes at room temperature, read-out: Biochem IC50
T1 construct: His; host or cells: E. coli
Method: Biochemical Inhibition Assay
NAMPT Protein Purification
Recombinant His-tagged NAMPT was produced in E. coli cells, purified over a Ni column, and further purified over a size-exclusion column by XTAL Biostructures.
The NAMPT Enzymatic Reaction
The NAMPT enzymatic reactions were carried out in Buffer A (50 mM Hepes pH 7.5, 50 mM NaCl, 5 mM MgCl2, and 1 mM THP) in 96-well V-bottom plates. The compound titrations were performed in a separate dilution plate by serially diluting the compounds in DMSO to make a 100× stock. […] The compound and enzyme mix was incubated for 15 minutes at room temperature, then 10 μL of 10× substrate and co-factors in Buffer A were added to the test well to make a final concentration of 1 μM NAM, 100 μM 5-Phospho-D-ribose 1-diphosphate (PRPP), and 2.5 mM Adenosine 5′-triphosphate (ATP). The reaction was allowed to proceed for 30 minutes at room temperature, then was quenched with the addition of 11 μL of a solution of formic acid and L-Cystathionine to make a final concentration of 1% formic acid and 10 μM L-Cystathionine. Background and signal strength was determined by addition (or non-addition) of a serial dilution of NMN to a pre-quenched enzyme and cofactor mix.
A mass spectrometry-based assay was used to measure the Nampt reaction product (NMN) and the internal control (L-Cystathionine). NMN and L-Cystathionine were detected using the services of Biocius Lifesciences with the RapidFire system. In short, the NMN and L-Cystathionine are bound to a graphitic carbon cartridge in 0.1% formic acid, eluted in 30% acetonitrile buffer, and injected into a Sciex 4000 mass spectrometer. The components of the sample were ionized with electrospray ionization and the positive ions were detected. […] The fragments are quantified and the analyzed by the following method.
First the NMN signal is normalized to the L-Cystathionine signal by dividing the NMN signal by the L-Cystathionine signal for each well. The signal from the background wells are averaged and subtracted from the test plates.
Wherein x denotes the average signal of the compound treated wells and y denotes the average signal of the DMSO treated wells.
IC50s are Determined Using Excel and this Formula.
Wherein X denotes the compound concentration 1, Y denotes the compound concentration 2, XX denotes the % inhibition at compound concentration 1 (X), and YY denotes the % inhibition at compound concentration 2 (Y).

T1 sequence (P43490 whole entry): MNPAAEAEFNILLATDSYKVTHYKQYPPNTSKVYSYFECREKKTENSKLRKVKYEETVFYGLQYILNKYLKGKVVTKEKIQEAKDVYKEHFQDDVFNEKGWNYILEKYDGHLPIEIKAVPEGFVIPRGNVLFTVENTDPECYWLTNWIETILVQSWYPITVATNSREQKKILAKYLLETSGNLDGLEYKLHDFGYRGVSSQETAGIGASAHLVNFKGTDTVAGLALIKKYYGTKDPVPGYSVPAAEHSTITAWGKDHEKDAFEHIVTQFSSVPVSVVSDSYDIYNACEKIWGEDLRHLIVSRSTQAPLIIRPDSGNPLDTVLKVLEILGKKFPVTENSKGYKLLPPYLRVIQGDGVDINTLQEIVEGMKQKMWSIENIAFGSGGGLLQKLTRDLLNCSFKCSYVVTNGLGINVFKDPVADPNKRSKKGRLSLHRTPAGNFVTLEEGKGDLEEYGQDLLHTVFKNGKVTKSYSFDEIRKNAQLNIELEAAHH

`O=C(NCCCCC1CCN(C(=O)c2ccc3cc[nH]c3c2)CC1)c1cc2cnccc2[nH]1` [N-(4-{1-[(1H-indol-6-yl)carbonyl]piperidin-4-yl}butyl)-1H-pyrrolo[3,2-c]pyridine-2-carboxamide] was tested, and the IC50 (A2780 cells; Homo sapiens) was 13.4 nM and the IC50 ([1]; 2.5 mM ATP) was 52.9 nM.

In the case of `O=C(NCCCCC1CCN(C(=O)c2ccc3cc[nH]c3c2)CC1)c1ccc2nccn2c1` [N-(4-{1-[(1H-indol-6-yl)carbonyl]piperidin-4-yl}butyl)imidazo[1,2-a]pyridine-6-carboxamide], the IC50 (A2780 cells; Homo sapiens) is reported as 14.9 nM and the IC50 ([1]; 2.5 mM ATP) is reported as 29.8 nM.

`O=C(NCCCCC1CCN(C(=O)c2ccc3cc[nH]c3c2)CC1)c1cc2ccncc2s1` [N-(4-{1-[(1H-indol-6-yl)carbonyl]piperidin-4-yl}butyl)thieno[2,3-c]pyridine-2-carboxamide] gave an IC50 (A2780 cells; Homo sapiens) of 70.3 nM and an IC50 ([1]; 2.5 mM ATP) of 36.1 nM.

`O=C(NCCCCC1CCN(C(=O)c2cccc(Cl)c2Cl)CC1)c1cc2cnccc2[nH]1` [N-(4-{1-[(2,3-dichlorophenyl)carbonyl]piperidin-4-yl}butyl)-1H-pyrrolo[3,2-c]pyridine-2-carboxamide] showed an IC50 (A2780 cells; Homo sapiens) of 3.2 nM and an IC50 ([1]; 2.5 mM ATP) of 31.2 nM.

With `O=C(NCCCCC1CCN(C(=O)c2cccc(Cl)c2Cl)CC1)c1cc2ccncc2s1` [N-(4-{1-[(2,3-dichlorophenyl)carbonyl]piperidin-4-yl}butyl)thieno[2,3-c]pyridine-2-carboxamide] the IC50 (A2780 cells; Homo sapiens) was 6.7 nM and the IC50 ([1]; 2.5 mM ATP) was 20.1 nM.

`O=C(NCCCCC1CCN(C(=O)c2cccc(F)c2F)CC1)c1cc2cnccc2[nH]1` [N-(4-{1-[(2,3-difluorophenyl)carbonyl]piperidin-4-yl}butyl)-1H-pyrrolo[3,2-c]pyridine-2-carboxamide] was tested, and the IC50 (A2780 cells; Homo sapiens) was 3.4 nM and the IC50 ([1]; 2.5 mM ATP) was 12.1 nM.

With `O=C(NCCCCC1CCN(C(=O)c2cccc(F)c2F)CC1)c1ccc2nccn2c1` [N-(4-{1-[(2,3-difluorophenyl)carbonyl]piperidin-4-yl}butyl)imidazo[1,2-a]pyridine-6-carboxamide] the IC50 (A2780 cells; Homo sapiens) was 10.1 nM and the IC50 ([1]; 2.5 mM ATP) was 7.9 nM.

Work on `O=C(NCCCCC1CCN(C(=O)c2cccc(F)c2F)CC1)c1cc2ccncc2s1` [N-(4-{1-[(2,3-difluorophenyl)carbonyl]piperidin-4-yl}butyl)thieno[2,3-c]pyridine-2-carboxamide] yielded an IC50 (A2780 cells; Homo sapiens) of 4.5 nM and an IC50 ([1]; 2.5 mM ATP) of 6.8 nM.

`COc1cccc(C(=O)N2CCC(CCCCNC(=O)c3cc4cnccc4[nH]3)CC2)c1OC` [N-(4-{1-[(2,3-dimethoxyphenyl)carbonyl]piperidin-4-yl}butyl)-1H-pyrrolo[3,2-c]pyridine-2-carboxamide] gave an IC50 (A2780 cells; Homo sapiens) of 1.9 nM and an IC50 ([1]; 2.5 mM ATP) of 20.8 nM.

With `COc1cccc(C(=O)N2CCC(CCCCNC(=O)c3ccc4nccn4c3)CC2)c1OC` [N-(4-{1-[(2,3-dimethoxyphenyl)carbonyl]piperidin-4-yl}butyl)imidazo[1,2-a]pyridine-6-carboxamide] the IC50 (A2780 cells; Homo sapiens) was 2.9 nM and the IC50 ([1]; 2.5 mM ATP) was 19.1 nM.

Compound `COc1cccc(C(=O)N2CCC(CCCCNC(=O)c3cc4ccncc4s3)CC2)c1OC` [N-(4-{1-[(2,3-dimethoxyphenyl)carbonyl]piperidin-4-yl}butyl)thieno[2,3-c]pyridine-2-carboxamide] has an IC50 (A2780 cells; Homo sapiens) of 5.6 nM and an IC50 ([1]; 2.5 mM ATP) of 16.9 nM.

Work on `O=C(NCCCCC1CCN(C(=O)c2ccc(Cl)cc2Cl)CC1)c1cc2cnccc2[nH]1` [N-(4-{1-[(2,4-dichlorophenyl)carbonyl]piperidin-4-yl}butyl)-1H-pyrrolo[3,2-c]pyridine-2-carboxamide] yielded an IC50 (A2780 cells; Homo sapiens) of 12 nM and an IC50 ([1]; 2.5 mM ATP) of 70 nM.

`O=C(NCCCCC1CCN(C(=O)c2ccc(Cl)cc2Cl)CC1)c1ccc2nccn2c1` [N-(4-{1-[(2,4-dichlorophenyl)carbonyl]piperidin-4-yl}butyl)imidazo[1,2-a]pyridine-6-carboxamide] gave an IC50 (A2780 cells; Homo sapiens) of 14.4 nM and an IC50 ([1]; 2.5 mM ATP) of 35.7 nM.

`O=C(NCCCCC1CCN(C(=O)c2ccc(Cl)cc2Cl)CC1)c1cc2ccncc2s1` [N-(4-{1-[(2,4-dichlorophenyl)carbonyl]piperidin-4-yl}butyl)thieno[2,3-c]pyridine-2-carboxamide] gave an IC50 (A2780 cells; Homo sapiens) of 86.1 nM and an IC50 ([1]; 2.5 mM ATP) of 41 nM.

`O=C(NCCCCC1CCN(C(=O)c2ccc(F)cc2F)CC1)c1cc2cnccc2[nH]1` [N-(4-{1-[(2,4-difluorophenyl)carbonyl]piperidin-4-yl}butyl)-1H-pyrrolo[3,2-c]pyridine-2-carboxamide] gave an IC50 (A2780 cells; Homo sapiens) of 8.1 nM and an IC50 ([1]; 2.5 mM ATP) of 39.3 nM.

`O=C(NCCCCC1CCN(C(=O)c2ccc(F)cc2F)CC1)c1ccc2nccn2c1` [N-(4-{1-[(2,4-difluorophenyl)carbonyl]piperidin-4-yl}butyl)imidazo[1,2-a]pyridine-6-carboxamide] was tested, and the IC50 (A2780 cells; Homo sapiens) was 25.6 nM and the IC50 ([1]; 2.5 mM ATP) was 7.1 nM.

`O=C(NCCCCC1CCN(C(=O)c2ccc(F)cc2F)CC1)c1cc2ccncc2s1` [N-(4-{1-[(2,4-difluorophenyl)carbonyl]piperidin-4-yl}butyl)thieno[2,3-c]pyridine-2-carboxamide] gave an IC50 (A2780 cells; Homo sapiens) of 13.5 nM and an IC50 ([1]; 2.5 mM ATP) of 12.8 nM.

For `COc1ccc(S(=O)(=O)N2CCC(CCCCNC(=O)c3cc4cnccc4[nH]3)CC2)c(OC)c1` [N-(4-{1-[(2,4-dimethoxybenzene)sulfonyl]piperidin-4-yl}butyl)-1H-pyrrolo[3,2-c]pyridine-2-carboxamide], the IC50 (A2780 cells; Homo sapiens) was 1.7 nM and the IC50 ([1]; 2.5 mM ATP) was 19.1 nM.

With `COc1ccc(C(=O)N2CCC(CCCCNC(=O)c3cc4cnccc4[nH]3)CC2)c(OC)c1` [N-(4-{1-[(2,4-dimethoxyphenyl)carbonyl]piperidin-4-yl}butyl)-1H-pyrrolo[3,2-c]pyridine-2-carboxamide] the IC50 (A2780 cells; Homo sapiens) was 3.3 nM and the IC50 ([1]; 2.5 mM ATP) was 67.1 nM.

Compound `COc1ccc(C(=O)N2CCC(CCCCNC(=O)c3ccc4nccn4c3)CC2)c(OC)c1` [N-(4-{1-[(2,4-dimethoxyphenyl)carbonyl]piperidin-4-yl}butyl)imidazo[1,2-a]pyridine-6-carboxamide] has an IC50 (A2780 cells; Homo sapiens) of 3.3 nM and an IC50 ([1]; 2.5 mM ATP) of 22.2 nM.

Work on `O=C(NCCCCC1CCN(C(=O)c2cc(Cl)ccc2Cl)CC1)c1cc2cnccc2[nH]1` [N-(4-{1-[(2,5-dichlorophenyl)carbonyl]piperidin-4-yl}butyl)-1H-pyrrolo[3,2-c]pyridine-2-carboxamide] yielded an IC50 (A2780 cells; Homo sapiens) of 6.1 nM and an IC50 ([1]; 2.5 mM ATP) of 51.3 nM.

With `O=C(NCCCCC1CCN(C(=O)c2cc(Cl)ccc2Cl)CC1)c1ccc2nccn2c1` [N-(4-{1-[(2,5-dichlorophenyl)carbonyl]piperidin-4-yl}butyl)imidazo[1,2-a]pyridine-6-carboxamide] the IC50 (A2780 cells; Homo sapiens) was 5.5 nM and the IC50 ([1]; 2.5 mM ATP) was 10.2 nM.

Compound `O=C(NCCCCC1CCN(C(=O)c2cc(Cl)ccc2Cl)CC1)c1cc2ccncc2s1` [N-(4-{1-[(2,5-dichlorophenyl)carbonyl]piperidin-4-yl}butyl)thieno[2,3-c]pyridine-2-carboxamide] has an IC50 (A2780 cells; Homo sapiens) of 7.1 nM and an IC50 ([1]; 2.5 mM ATP) of 16 nM.

For `O=C(NCCCCC1CCN(S(=O)(=O)c2cc(F)ccc2F)CC1)c1cc2cnccc2[nH]1` [N-(4-{1-[(2,5-difluorobenzene)sulfonyl]piperidin-4-yl}butyl)-1H-pyrrolo[3,2-c]pyridine-2-carboxamide], the IC50 (A2780 cells; Homo sapiens) was 5.8 nM and the IC50 ([1]; 2.5 mM ATP) was 11.1 nM.

In the case of `O=C(NCCCCC1CCN(C(=O)c2cc(F)ccc2F)CC1)c1ccc2nccn2c1` [N-(4-{1-[(2,5-difluorophenyl)carbonyl]piperidin-4-yl}butyl)imidazo[1,2-a]pyridine-6-carboxamide], the IC50 (A2780 cells; Homo sapiens) is reported as 5 nM and the IC50 ([1]; 2.5 mM ATP) is reported as 5 nM.

Compound `COc1ccc(OC)c(S(=O)(=O)N2CCC(CCCCNC(=O)c3cc4cnccc4[nH]3)CC2)c1` [N-(4-{1-[(2,5-dimethoxybenzene)sulfonyl]piperidin-4-yl}butyl)-1H-pyrrolo[3,2-c]pyridine-2-carboxamide] has an IC50 (A2780 cells) of 1.8 nM and an IC50 ([1]; […] ATP) of 28.4 nM.
